These results are taken from PMC5218480 (PLoS ONE, 2017).

In the test the test system is MV-4-11 cells. Put plainly: Gene expression microarray analysis (Affymetrix PrimeView) and GSEA. The class given is cell-based, human. Also noted: RFU PODN (11730768_x_at) / Fold change /veh PODN (11730768_x_at) / RFU LINC00158 (11744669_a_at) / Fold change /veh LINC00158 (11744669_a_at) / RFU DUSP10 (11751237_a_at) / Fold change /veh DUSP10 (11751237_a_at) / RFU ID3 (11757404_x_at) / Fold change /veh ID3 (11757404_x_at) / RFU PLEKHG5 (11737974_s_at) / Fold change /veh PLEKHG5 (11737974_s_at) / RFU LRRC4B (11730491_at) / Fold change /veh LRRC4B (11730491_at) / RFU GIMAP4 (11747438_a_at) / Fold change /veh GIMAP4 (11747438_a_at) / RFU KRT8 (11758183_x_at) / Fold change /veh KRT8 (11758183_x_at) / RFU CNN1 (11734310_a_at) / Fold change /veh CNN1 (11734310_a_at) / RFU VPS37D (11726825_at) / Fold change /veh VPS37D (11726825_at) / RFU C10orf10 (11716522_x_at) / Fold change /veh C10orf10 (11716522_x_at) / RFU KIR2DL2 /// KIR2DL4 /// KIR2DL5A /// KIR2DL5B /// KIR2DS1 /// KIR2DS2 /// KIR2DS3 /// KIR2DS4 /// KIR3DL3 /// KIR3DL3 /// KIR3DS1 (11738374_at) / Fold change /veh KIR2DL2 /// KIR2DL4 /// KIR2DL5A /// KIR2DL5B /// KIR2DS1 /// KIR2DS2 /// KIR2DS3 /// KIR2DS4 /// KIR3DL3 /// KIR3DL3 /// KIR3DS1 (11738374_at) / RFU C1QL1 (11718748_at) / Fold change /veh C1QL1 (11718748_at) / RFU TMPRSS4 (11747572_a_at) / Fold change /veh TMPRSS4 (11747572_a_at) / RFU HAMP (11756126_x_at) / Fold change /veh HAMP (11756126_x_at) / RFU RNFT2 (11725882_a_at) / Fold change /veh RNFT2 (11725882_a_at) / RFU NR4A2 (11747474_a_at) / Fold change /veh NR4A2 (11747474_a_at) / RFU ABCC12 (11746883_a_at) / Fold change /veh ABCC12 (11746883_a_at) / RFU TMEM136 (11760407_x_at) / Fold change /veh TMEM136 (11760407_x_at) / RFU CLDN22 /// WWC2 (11732394_at) / Fold change /veh CLDN22 /// WWC2 (11732394_at) / RFU HLA-DPB1 (11760878_x_at) / Fold change /veh HLA-DPB1 (11760878_x_at) / RFU SPINT1 (11716480_a_at) / Fold change /veh SPINT1 (11716480_a_at) / RFU GAP43 (11754022_s_at) / Fold change /veh GAP43 (11754022_s_at) / RFU A4GNT (11735810_at) / Fold change /veh A4GNT (11735810_at) / RFU PRB3 (11715151_x_at) / Fold change /veh PRB3 (11715151_x_at) / RFU TUBB4B (11761932_at) / Fold change /veh TUBB4B (11761932_at) / RFU CAPN14 (11732068_a_at) / Fold change /veh CAPN14 (11732068_a_at) / RFU TMCC2 (11721928_a_at) / Fold change /veh TMCC2 (11721928_a_at) / RFU IRGQ (11745062_a_at) / Fold change /veh IRGQ (11745062_a_at) / RFU FAM174B (11720279_a_at) / Fold change /veh FAM174B (11720279_a_at) / RFU TMPRSS4 (11748680_a_at) / Fold change /veh TMPRSS4 (11748680_a_at) / RFU FAM212B (11763350_a_at) / Fold change /veh FAM212B (11763350_a_at) / RFU PLEKHG5 (11743358_a_at) / Fold change /veh PLEKHG5 (11743358_a_at) / RFU ZSCAN30 (11745921_a_at) / Fold change /veh ZSCAN30 (11745921_a_at) / RFU CMKLR1 (11741424_a_at) / Fold change /veh CMKLR1 (11741424_a_at) / RFU LOC101060620 /// MAPK8IP1 (11723275_at) / Fold change /veh LOC101060620 /// MAPK8IP1 (11723275_at) / RFU SPTSSB (11747773_x_at) / Fold change /veh SPTSSB (11747773_x_at) / RFU PRSS12 (11739890_at) / Fold change /veh PRSS12 (11739890_at) / RFU BIN1 (11741810_x_at) / Fold change /veh BIN1 (11741810_x_at) / RFU WNT11 (11732464_a_at) / Fold change /veh WNT11 (11732464_a_at) / RFU C10orf10 (11716521_a_at) / Fold change /veh C10orf10 (11716521_a_at) / RFU C5orf56 (11738089_at) / Fold change /veh C5orf56 (11738089_at) / RFU CYB561 (11721691_x_at) / Fold change /veh CYB561 (11721691_x_at) / RFU ANKRD19P (11752326_a_at) / Fold change /veh ANKRD19P (11752326_a_at) / RFU OR2T12 /// OR2T33 /// OR2T8 (11738714_s_at) / Fold change /veh OR2T12 /// OR2T33 /// OR2T8 (11738714_s_at) / RFU VCAN (11748164_a_at) / Fold change /veh VCAN (11748164_a_at) / RFU JSRP1 (11732532_at) / Fold change /veh JSRP1 (11732532_at) / RFU KRTAP10-11 (11738290_x_at) / Fold change /veh KRTAP10-11 (11738290_x_at) / RFU MYO3A (11730013_a_at) / Fold change /veh MYO3A (11730013_a_at) / RFU EBF3 (11725865_a_at) / Fold change /veh EBF3 (11725865_a_at) / RFU CAMK2N1 (11719241_x_at) / Fold change /veh CAMK2N1 (11719241_x_at) / RFU C5orf56 (11738088_a_at) / Fold change /veh C5orf56 (11738088_a_at) / RFU OLFML3 (11715873_a_at) / Fold change /veh OLFML3 (11715873_a_at) / RFU LOC100653217 /// NTM (11731650_a_at) / Fold change /veh LOC100653217 /// NTM (11731650_a_at) / RFU MAPK11 (11762145_a_at) / Fold change /veh MAPK11 (11762145_a_at) / RFU FIZ1 (11724087_x_at) / Fold change /veh FIZ1 (11724087_x_at) / RFU OASL (11726364_x_at) / Fold change /veh OASL (11726364_x_at) / RFU SOX15 (11748057_x_at) / Fold change /veh SOX15 (11748057_x_at) / RFU CD79A (11719716_a_at) / Fold change /veh CD79A (11719716_a_at) / RFU HIST1H1D (11736915_at) / Fold change /veh HIST1H1D (11736915_at) / RFU CASKIN2 (11723855_a_at) / Fold change /veh CASKIN2 (11723855_a_at) / RFU LOC730098 (11760151_x_at) / Fold change /veh LOC730098 (11760151_x_at) / RFU OR4N2 (11742367_at) / Fold change /veh OR4N2 (11742367_at) / RFU PRRT2 (11749266_a_at) / Fold change /veh PRRT2 (11749266_a_at) / RFU SNX32 (11753110_a_at) / Fold change /veh SNX32 (11753110_a_at) / RFU CDHR5 (11726645_a_at) / Fold change /veh CDHR5 (11726645_a_at) / RFU RCAN1 (11760418_a_at) / Fold change /veh RCAN1 (11760418_a_at) / RFU FAM167A (11723789_a_at) / Fold change /veh FAM167A (11723789_a_at) / RFU FAM26E (11764081_at) / Fold change /veh FAM26E (11764081_at) / RFU ISYNA1 (11749810_s_at) / Fold change /veh ISYNA1 (11749810_s_at) / RFU ACY1 (11761880_at) / Fold change /veh ACY1 (11761880_at) / RFU 11764098_at / Fold change /veh 11764098_at / RFU SAMD14 (11745864_x_at) / Fold change /veh SAMD14 (11745864_x_at) / RFU NPB (11741838_a_at) / Fold change /veh NPB (11741838_a_at) / RFU TMPRSS6 (11731388_a_at) / Fold change /veh TMPRSS6 (11731388_a_at) / RFU KRTAP10-2 (11738614_at) / Fold change /veh KRTAP10-2 (11738614_at) / RFU ARHGAP8 /// PRR5-ARHGAP8 (11727945_x_at) / Fold change /veh ARHGAP8 /// PRR5-ARHGAP8 (11727945_x_at) / RFU KRTAP5-7 /// NADSYN1 (11734609_at) / Fold change /veh KRTAP5-7 /// NADSYN1 (11734609_at) / RFU RASL12 (11751679_a_at) / Fold change /veh RASL12 (11751679_a_at) / RFU CDKN2B (11736163_a_at) / Fold change /veh CDKN2B (11736163_a_at) / RFU PRF1 (11729649_at) / Fold change /veh PRF1 (11729649_at) / RFU, ZNF638 /// ZNF638-IT1 / Fold change vs veh, ZNF638 /// ZNF638-IT1 / RFU, PANK3 / Fold change vs veh, PANK3 / RFU, SH3YL1 / Fold change vs veh, SH3YL1 / RFU, ZEB2 / Fold change vs veh, ZEB2 / RFU, NRIP1 / Fold change vs veh, NRIP1 / RFU, PTTG1IP / Fold change vs veh, PTTG1IP / RFU, CAPN2 / Fold change vs veh, CAPN2 / RFU, MED14 / Fold change vs veh, MED14 / RFU, SNORA58 / Fold change vs veh, SNORA58 / RFU, C1orf63 / Fold change vs veh, C1orf63 / RFU, LRRFIP1 / Fold change vs veh, LRRFIP1 / RFU, NDUFAF7 / Fold change vs veh, NDUFAF7 / RFU, SLC12A2 / Fold change vs veh, SLC12A2 / RFU, IBTK / Fold change vs veh, IBTK / RFU, ESF1 / Fold change vs veh, ESF1 / Fold change vs veh, TMEM50B / RFU, TAOK1 / Fold change vs veh, TAOK1 / RFU, ACBD3 / Fold change vs veh, ACBD3 / RFU, TMA16 / Fold change vs veh, TMA16 / RFU, RWDD3 / Fold change vs veh, RWDD3 / RFU, BCAT1 / Fold change vs veh, BCAT1 / RFU, EDEM3 / Fold change vs veh, EDEM3 / RFU, TMEM33 / Fold change vs veh, TMEM33 / RFU, WDR75 / Fold change vs veh, WDR75 / RFU, AHCTF1 / Fold change vs veh, AHCTF1 / RFU, TFRC / Fold change vs veh, TFRC / RFU, ZDHHC17 / Fold change vs veh, ZDHHC17 / RFU, NOM1 / Fold change vs veh, NOM1 / RFU, ARL8B / Fold change vs veh, ARL8B / RFU, ZBTB11 / Fold change vs veh, ZBTB11 / RFU, TAMM41 / Fold change vs veh, TAMM41 / RFU, KIAA1704 /// LOC100996395 / Fold change vs veh, KIAA1704 /// LOC100996395 / RFU, ING1 / Fold change vs veh, ING1 / RFU, TRMT61B / Fold change vs veh, TRMT61B / RFU, FUBP3 / Fold change vs veh, FUBP3 / RFU, TP53 / Fold change vs veh, TP53 / RFU, TNKS2 / Fold change vs veh, TNKS2 / RFU, ZFP14 / Fold change vs veh, ZFP14 / RFU, ACTR2 / Fold change vs veh, ACTR2 / RFU, PPP3R1 / Fold change vs veh, PPP3R1 / RFU, PIK3R1 / Fold change vs veh, PIK3R1 / RFU, HNRNPA1 / Fold change vs veh, HNRNPA1 / RFU, RNF170 / Fold change vs veh, RNF170 / RFU, ZNF28 / Fold change vs veh, ZNF28 / RFU, RNGTT / Fold change vs veh, RNGTT / RFU, OGT / Fold change vs veh, OGT / RFU, BRD1 / Fold change vs veh, BRD1 / RFU, MARS / Fold change vs veh, MARS / RFU, ZNF655 / Fold change vs veh, ZNF655 / RFU, FAHD1 / Fold change vs veh, FAHD1 / RFU, BDP1 / Fold change vs veh, BDP1 / RFU, LRRCC1 / Fold change vs veh, LRRCC1 / RFU, ARID1A / Fold change vs veh, ARID1A / RFU, ZNF146 / Fold change vs veh, ZNF146 / RFU, ZNF330 / Fold change vs veh, ZNF330 / RFU, GPN3 / Fold change vs veh, GPN3 / RFU, C9orf123 / Fold change vs veh, C9orf123 / RFU, N4BP2L2 / Fold change vs veh, N4BP2L2 / RFU, ARFIP1 / Fold change vs veh, ARFIP1 / RFU, FAM179B / Fold change vs veh, FAM179B / RFU, BCL10 / Fold change vs veh, BCL10 / RFU, UHRF1BP1L / Fold change vs veh, UHRF1BP1L / RFU, BET1 / Fold change vs veh, BET1 / RFU, CNOT2 / Fold change vs veh, CNOT2 / RFU, ZNF268 / Fold change vs veh, ZNF268 / Fold change vs veh, ZNF507 / RFU, DGCR2 / Fold change vs veh, DGCR2 / RFU, WDSUB1 / Fold change vs veh, WDSUB1 / Fold change vs veh, HSP90B1 /// MIR3652 / RFU, ADSS / Fold change vs veh, ADSS / RFU, GK / Fold change vs veh, GK / RFU, ZNF148 / Fold change vs veh, ZNF148 / RFU, TAF9 / Fold change vs veh, TAF9 / RFU, SLC1A5 / Fold change vs veh, SLC1A5 / RFU, SLMO2 / Fold change vs veh, SLMO2 / RFU, ABCC4 / Fold change vs veh, ABCC4 / RFU, LOC101060439 /// RAP1B / Fold change vs veh, LOC101060439 /// RAP1B / RFU, RFX7 / Fold change vs veh, RFX7 / RFU, GTPBP10 / Fold change vs veh, GTPBP10 / RFU, CNEP1R1 / Fold change vs veh, CNEP1R1 / RFU, BIVM-ERCC5 /// ERCC5 / Fold change vs veh, BIVM-ERCC5 /// ERCC5 / RFU, ILF3 / Fold change vs veh, ILF3 / RFU 11762660_at / Fold change /veh 11762660_at / RFU VCAN (11757783_s_at) / Fold change /veh VCAN (11757783_s_at) / RFU DDX43 (11728927_at) / Fold change /veh DDX43 (11728927_at) / RFU KRT8 (11758188_x_at) / Fold change /veh KRT8 (11758188_x_at) / RFU NKD1 (11759106_at) / Fold change /veh NKD1 (11759106_at) / RFU SRD5A1 (11742802_a_at) / Fold change /veh SRD5A1 (11742802_a_at) / RFU TPSAB1 /// TPSB2 (11721975_s_at) / Fold change /veh TPSAB1 /// TPSB2 (11721975_s_at) / RFU GSTM3 (11746129_a_at) / Fold change /veh GSTM3 (11746129_a_at) / RFU IL23R (11737362_x_at) / Fold change /veh IL23R (11737362_x_at) / RFU TMEM51 (11727254_a_at) / Fold change /veh TMEM51 (11727254_a_at) / RFU PIWIL2 (11732686_x_at) / Fold change /veh PIWIL2 (11732686_x_at) / RFU ORM1 (11744905_x_at) / Fold change /veh ORM1 (11744905_x_at) / RFU CCDC152 (11743942_at) / Fold change /veh CCDC152 (11743942_at) / RFU ECM1 (11717891_a_at) / Fold change /veh ECM1 (11717891_a_at) / RFU IL23R (11748794_a_at) / Fold change /veh IL23R (11748794_a_at) / RFU TNFAIP8L3 (11732012_x_at) / Fold change /veh TNFAIP8L3 (11732012_x_at) / RFU MBOAT4 (11741988_at) / Fold change /veh MBOAT4 (11741988_at) / RFU 11764193_at / Fold change /veh 11764193_at / RFU TMEM53 (11763286_at) / Fold change /veh TMEM53 (11763286_at) / RFU MAGEB2 (11727129_at) / Fold change /veh MAGEB2 (11727129_at) / RFU TMEM200A (11744735_a_at) / Fold change /veh TMEM200A (11744735_a_at) / RFU CCDC152 (11751479_a_at) / Fold change /veh CCDC152 (11751479_a_at) / RFU FAM211A (11726209_a_at) / Fold change /veh FAM211A (11726209_a_at) / RFU RGS16 (11746705_a_at) / Fold change /veh RGS16 (11746705_a_at) / RFU VCAN (11755009_s_at) / Fold change /veh VCAN (11755009_s_at) / RFU RHOB (11743442_s_at) / Fold change /veh RHOB (11743442_s_at) / RFU RGS16 (11720943_a_at) / Fold change /veh RGS16 (11720943_a_at) / RFU RGS16 (11720944_at) / Fold change /veh RGS16 (11720944_at) / RFU, VPS4B / Fold change vs veh, VPS4B / RFU, CREB1 / Fold change vs veh, CREB1 / RFU, DNAJC13 / Fold change vs veh, DNAJC13 / RFU, GNAQ / Fold change vs veh, GNAQ / RFU, CDK5R1 / Fold change vs veh, CDK5R1 / RFU, ZRANB3 / Fold change vs veh, ZRANB3 / RFU, CUL4A / Fold change vs veh, CUL4A / RFU, CCNY / Fold change vs veh, CCNY / RFU, UFL1 / Fold change vs veh, UFL1 / RFU, COG3 / Fold change vs veh, COG3 / RFU, DIAPH2 / Fold change vs veh, DIAPH2 / RFU, SKA2 / Fold change vs veh, SKA2 / RFU, AFF3 / Fold change vs veh, AFF3 / RFU, LMF1 / Fold change vs veh, LMF1 / RFU, IPO11 / Fold change vs veh, IPO11 / RFU, DFFB / Fold change vs veh, DFFB / RFU, FOXP1 / Fold change vs veh, FOXP1 / RFU, CARD8 / Fold change vs veh, CARD8 / RFU, STRN3 / Fold change vs veh, STRN3 / RFU, ADK / Fold change vs veh, ADK / RFU, RASSF2 / Fold change vs veh, RASSF2 / RFU, WIPF1 / Fold change vs veh, WIPF1 / RFU, LARP1B / Fold change vs veh, LARP1B / RFU, RASA1 / Fold change vs veh, RASA1 / RFU, RB1 / Fold change vs veh, RB1 / RFU, PPFIA1 / Fold change vs veh, PPFIA1 / RFU, MAT2A / Fold change vs veh, MAT2A / RFU, CCT5 / Fold change vs veh, CCT5 / RFU, WDR92 / Fold change vs veh, WDR92 / RFU, CUX1 / Fold change vs veh, CUX1 / RFU, TTC7A / Fold change vs veh, TTC7A / RFU, TMEM135 / Fold change vs veh, TMEM135 / RFU, DEPTOR / Fold change vs veh, DEPTOR / RFU, CPM / Fold change vs veh, CPM / RFU, DNAJB6 / Fold change vs veh, DNAJB6 / RFU, CACNA2D3 / Fold change vs veh, CACNA2D3 / RFU, DTX4 / Fold change vs veh, DTX4 / RFU, TFCP2 / Fold change vs veh, TFCP2 / RFU, GMCL1 /// GMCL1P1 / Fold change vs veh, GMCL1 /// GMCL1P1 / RFU, AEBP2 / Fold change vs veh, AEBP2 / RFU, SNHG1 /// SNORD22 /// SNORD25 /// SNORD26 /// SNORD27 /// SNORD28 /// SNORD29 /// SNORD31 / Fold change vs veh, SNHG1 /// SNORD22 /// SNORD25 /// SNORD26 /// SNORD27 /// SNORD28 /// SNORD29 /// SNORD31 / Fold change (Aza/veh), C12orf56 (ProbeSet 11735607_a_at) / Fold change (ACY-1035/veh), C12orf56 (ProbeSet 11735607_a_at) / Fold change (Aza/veh), FGFR1OP (ProbeSet 11751329_s_at) / Fold change (ACY-1035/veh), FGFR1OP (ProbeSet 11751329_s_at) / Fold change (Aza/veh), VPS36 (ProbeSet 11739960_a_at) / Fold change (ACY-1035/veh), VPS36 (ProbeSet 11739960_a_at) / RFU SYPL1 (11715823_x_at) / Fold change /veh SYPL1 (11715823_x_at) / RFU IGFBP7 (11715501_s_at) / Fold change /veh IGFBP7 (11715501_s_at) / RFU REEP3 (11722064_at) / Fold change /veh REEP3 (11722064_at) / RFU IGLL1 (11728026_x_at) / Fold change /veh IGLL1 (11728026_x_at): dose or concentration left out as unconfirmed. The note with it: MV-4-11 cells, 48 hours.

Regarding `Nc1ccc(-c2cccs2)cc1NC(=O)c1ccc2c(c1)cc(C1CC1)n2CCN1CCOCC1` [ACY-1035], the “RFU MYO3A (11730013_a_at)” value is 90.31 RFU.
